Assay results from the NIST ThermoML archive (doi:10.1016/j.jct.2010.10.018).

How the values were obtained:
[1] = 101.33 kPa, Liquid, Vibrating tube method
[2] = xn = mol fraction of the nth substance listed; conditions: 101 kPa, Liquid, Vibrating tube method, x2 = 0

CC(C)(C)O [2-methylpropan-2-ol]
[1]
Conditions | mass density [kg/m3]
299.15 K | 779.48
303.15 K | 775.39
308.15 K | 770.15
313.15 K | 764.84
318.15 K | 759.46
323.15 K | 753.94
333.15 K | 742.7
348.15 K | 725.06

O [water] + CC(C)(C)O
[2]
Conditions | mass density [kg/m3]
274.15 K | 999.899
275.15 K | 999.94
276.15 K | 999.964
277.15 K | 999.972
278.15 K | 999.964
279.15 K | 999.94
280.15 K | 999.901
281.15 K | 999.848
282.15 K | 999.781
283.15 K | 999.699
323.15 K | 988.03
333.15 K | 983.191
348.15 K | 974.838
